The nature of one data set: Microsomal stability. It is filed as in vitro ADME.
The subject of the next data set is MV4-11 cells (MLL-AF4). Briefly: Cell proliferation and viability, trypan blue counting. The format is cell-based, human. Conditions: Homo sapiens, 360 h; MV4-11 (AF4), 15-day treatment; read-out: EC50 of the proliferation inhibition.
Another data set concerns MOLM-13 cells (MLL-AF9). Kind of data set: Cell proliferation, trypan blue counting. The format is cell-based. Conditions: Homo sapiens, 360 h; MOLM-13 (AF9), 15-day treatment; read-out: EC50 of the proliferation inhibition.
The next data set has as its system H3K79me2 in MOLM13 cells. Briefly: Western blot of H3K79me2 normalized to total H3. The format is cell-based, human. The note with it: MOLM13, 6 days. As for the experimental part: (§1) Next, we evaluated the effect on the demethylation of H3K79 in MLL-AF9 MOLM13 cells (Figure 7B).
(§2) The non-adherent cell lines MV4-11, MOLM-13, and KOPN8 exponentially growing cells were plated in 12-well plates (1 plate for each experiment) at a rate of 500,000 cells per well at a final volume of 2 mL. The cells were incubated in the presence of increasing inhibitor concentrations (0.1, 0.32, 1, 3.2, 10 µM). The cells (1 to 2 million) were harvested at the time chosen according to the line in order to extract the histones and the RNAs.
(§3) For the isolation of histones from cells, 1 to 2 million cells were collected, after exposure to the chosen treatment, by centrifugation at 200× g and lysed by 5 min of incubation on ice in 250 μL of the nuclear extraction buffer (10 mM Tris-HCl, 10 mM MgCl2, 25 mM KCl, 1% Triton X-100, 8.6% sucrose, Roche Protease inhibitor tablet 1836145). The nuclei were collected by centrifugation at 600× g for 5 min at 4 °C. The supernatant was removed and the histones were extracted for 1 h with 0.4 N cold sulfuric acid. The extracts were clarified by centrifugation at 10,000× g for 10 min at 4 °C and transferred to a microcentrifuge tube containing a 10× volume of ice-cold acetone. The histones were precipitated at ‒20 °C overnight and recovered by centrifugation at 1500× g for 10 min in the form of a pellet and then resuspended in 80 μL of water. Histones were quantified by absorbance measured by a nanodrop at 276 nm.
(§4) After extraction, the histones (500ng) were separated on 4–20% Tris-Glycine gels (Invitrogen) and transferred onto a nitrocellulose membrane ([…]) using the iBlot® Gel Transfer Stacks Nitrocellulose kit Mini (Invitrogen). After blocking nonspecific sites for 1 h at room temperature in a solution of 1X TBS at 5% milk, the membrane was incubated with rabbit anti-H3K79me2 (ab3594, 1/1000) or anti-H3 (ab1791)1/1000) overnight at 4 °C or 1 h at RT. The membrane was then washed three times for 5 min in a 1X TBS solution containing 0.05% Tween20 and was then incubated with an HRP anti-rabbit secondary antibody (NA934V, 1/10,000) for 1 h at RT. […]

Another data set deals with H3K79me2 in MV4-11 cells. Briefly: Western blot of H3K79me2 normalized to total H3. It is filed as cell-based, human. The note with it: MV4-11, 4 days, increasing concentrations. As for the experimental part:
as §1, §2, §3, §4

The subject of data set [1] is MV4-11 cells. Kind of data set: Flow cytometry cell cycle analysis (propidium iodide). The note with it: for percentage of cells in the G0/G1 phase / percentage of cells in the S phase: MV4-11, 3.2 µM. The format is cell-based, human. As for the experimental part:
(§5) A decrease in the S phase of the cell cycle was also observed from 24% (day 8) to 20% (day 10), 13% (day 12).
(§6) In a 12-well plate, 2 mL exponentially growing MV4-11 cells were plated with a density of 2 × 10^5 cells/mL. […] Culture media and drugs were replaced every 2–3 days and cells were split back to a density of 2 × 10^5 cells/mL at the same time. Cells were harvested on days 8, 10, 12 and split to allow the analysis of cell cycle and Annexin V staining simultaneously. The apoptosis ratio was detected by an Annexin V-APC/7-AAD double staining assay (SONY 3804610) and cells were prepared according to the manufacturer’s recommendations. Cells for the cell cycle analysis were collected by centrifugation at 500× g for 5 min at 4 °C. The pellets were washed once with cold PBS and then fixed with 70% ethanol on ice for 30 min. Afterwards, the cells were washed once with cold PBS and stained with propidium iodide (Invitrogen P3566) for 30 min at 37 °C. Samples were measured using an Attune NxT acoustic focusing cytometer (Life Technologies), data were analyzed by FlowJo.
(In general: Flow cytometry measures light scatter and fluorescence of single cells or particles in a stream.)

In data set [2] the test system is MV4-11 cells. Briefly: Flow cytometry apoptosis analysis (Annexin V-APC/7-AAD). It is filed as cell-based, human. As to the method:
as §5, §6

The test system of data set [3] is histone marks H2R2me2S, H3K4me3, H3K9me2, H4K20me2, H4K20me3, H3K9me1, H3K36me1. Kind of data set: Selectivity on histone marks by fluorescence microscopy HCS. The note with it: 7 tested histone marks other than H3K79me2. The format is cell-based. As for the experimental part:
This difference in the mechanism was further confirmed by flow cytometry analysis of the impact of the compounds on the cell cycle and apoptosis.
Table S1: Selectivity of the compound on a HMT panel (by Reaction Biology, USA) and on hDNMT3Acat (as described in Ceccaldi
Enzyme % Activity (relative to DMSO
Testing Concentration 10µM
Methyltransferase: Substrate: Activity enzyme in %
EZH2 Complex Core Histone 86±1
Figure S4. Selectivity evaluation of the compound Dia-2 by fluorescence microscopy HCS. A) fluorescence imaging of the
H3K79me2 mark B) bar diagram of the percentage of inhibition for compound Dia-2.
(1 picture or pasted object on this page, not shown here)

A further data set addresses recombinant hDOT1L (Homo sapiens, UniProt Q8TEK3). Kind of data set: AlphaLISA DOT1L enzymatic inhibition assay on purified nucleosomes. On the technique in general: Bead proximity is the source of the signal in Alpha formats.

recombinant hDOT1L, sequence (Q8TEK3 1-416): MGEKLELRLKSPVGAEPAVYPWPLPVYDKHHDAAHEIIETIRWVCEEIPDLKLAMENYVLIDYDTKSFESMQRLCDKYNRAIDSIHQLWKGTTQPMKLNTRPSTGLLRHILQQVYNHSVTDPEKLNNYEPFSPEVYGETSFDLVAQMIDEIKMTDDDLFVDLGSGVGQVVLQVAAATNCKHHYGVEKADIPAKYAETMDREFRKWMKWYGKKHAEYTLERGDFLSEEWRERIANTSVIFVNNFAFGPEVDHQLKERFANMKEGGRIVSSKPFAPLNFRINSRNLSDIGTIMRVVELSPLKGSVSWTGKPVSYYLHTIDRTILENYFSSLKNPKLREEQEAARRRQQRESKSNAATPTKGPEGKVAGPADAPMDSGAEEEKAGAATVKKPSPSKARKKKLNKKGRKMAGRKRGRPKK

Consider `CC(C)[C@H](CCCNC(=O)Nc1ccc(C(C)(C)C)cc1)N[C@H]1C[C@@H](n2cnc3c(N)ncnc32)[C@H](O)[C@@H]1O` [Dia2, 1-((S)-4-(((1S,2R,3S,4R)-4-(6-amino-9H-purin-9-yl)-2,3-dihydroxycyclopentyl)amino)-5-methylhexyl)-3-(4-(tert-butyl)phenyl)urea], for which, in the data set “Microsomal stability” (mouse liver microsomes, versus EPZ-4777 and EPZ-5676), the half-life increase came out at 2 fold. For the same compound, the microsomal CLint in the data set “Microsomal stability” (mouse liver microsomes, read-out: intrinsic clearance) was found to be 121 µL/min/mg. In addition, in “Microsomal stability” (mouse, liver microsomes), the half-life (commonly the time in which the quantity being followed falls by half) was found to be 11.5 min. Besides, the results for the EC50 in the data set with MV4-11 cells (MLL-AF4) and in the data set on MOLM-13 cells (MLL-AF9) were 93 ± 4 nM and 120 ± 10 nM, respectively. For the same compound, the “inhibition of the H3K79me2 mark” value with H3K79me2 in MOLM13 cells is recorded as “as efficient as EPZ-5676”. Besides, in the data set with H3K79me2 in MV4-11 cells, the “H3K79me2 methylation compared to DMSO treated cells” value is “efficient decrease in methylation”. Besides, the “effect on the cell cycle” value in the data set with MV4-11 cells [1] (MV4-11, 1 µM) is on record as “does not affect the cell cycle”. For the same compound, the “percentage of cells in the G0/G1 phase” value came out at 53% in the data set on MV4-11 cells [1] (day 8), 41% with MV4-11 cells [1] (day 10) and 24% with MV4-11 cells [1] (day 12). The “percentage of cells in the S phase” value is 24% with MV4-11 cells [1] (day 8), 20% in the data set on MV4-11 cells [1] (day 10) and 13% with MV4-11 cells [1] (day 12). Further, in the data set with MV4-11 cells [2] (MV4-11), the effect on apoptosis result is on record as “very little apoptosis”. The “apoptotic (Annexin V positive) cells” value was 23% in the data set with MV4-11 cells [2] (MV4-11, 1 µM, day 8); 20% in the data set with MV4-11 cells [2] (MV4-11, 1 µM, day 10); 35% in the data set on MV4-11 cells [2] (MV4-11, 3.2 µM, day 8); 38% in the data set with MV4-11 cells [2] (MV4-11, 3.2 µM, day 10). In addition, the “effect on other histone marks in cells” value in [3] is given as “does not affect the other 7 tested histone marks”. The IC50 (usually the concentration at which inhibition is half-maximal) at recombinant hDOT1L was 4.7 nM.

Values taken from publication PMC8434109, “Synthesis and Biological Activity of a Cytostatic Inhibitor of MLLr Leukemia Targeting the DOT1L Protein” (Molecules, 2021).
